Where a name gives a salt, the structure may show the parent alone. Read-outs that look alike come from different tables or passages of the source.
Assays:
IMP-1 = IMP-1 (Serratia marcescens, UniProt P52699); assay: biochemical; assay type: biochemical; conditions: read-out: IMP-1 IC50
NDM-1 = NDM-1 (Klebsiella pneumoniae, UniProt C7C422); assay: biochemical; assay type: biochemical; conditions: read-out: NDM-1 IC50
VIM-1 = VIM-1 (Pseudomonas aeruginosa (strain ATCC 15692 / DSM 22644 / CIP 104116 / JCM 14847 / LMG 12228 / 1C / PRS 101 / PAO1), UniProt A0A0F7KYQ8); assay: Enzyme activity: determination of IC50, fluorescence assay with CCF2-FA substrate (VIM-1); assay type: biochemical
[1] = test system: Serratia marcescens expressing IMP-1 (CL5741); assay: Antibiotic potentiation activity: synergistic concentration (MITC95) with imipenem, OD600 growth; assay type: cell-based; conditions: for Serratia marcescens MITC95: Serratia marcescens expressing IMP-1 (CL5741), 95% growth inhibition; for Serratia marcescens expressing IMP-1 (CL5741) MITC95: concentration giving 95% inhibition of bacterial growth
Outline: (§1)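 Compound activity is tested with and without imipenem, which is present at 4 μg/ml (or 1 μg/ml) in the well. Bacteria in 1.1× CAMHB are incubated 22–24 h at 35 °C; absorbance gives the growth endpoint.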

[2] = test system: Klebsiella pneumoniae expressing VIM-1 (IHMA599644); assay: as above; assay type: cell-based; conditions: for Klebsiella pneumoniae MITC95: Klebsiella pneumoniae expressing VIM-1 (IHMA599644), 95% growth inhibition; for Klebsiella pneumoniae expressing VIM-1 (IHMA 599644) MITC95: concentration giving 95% inhibition of bacterial growth
Outline: as §1

[3] = test system: Escherichia coli expressing NDM-1 (CLB30016); assay: as above; assay type: cell-based; conditions: for Escherichia coli MITC95: Escherichia coli expressing NDM-1 (CLB30016), 95% growth inhibition; for Escherichia coli expressing NDM-1 (CLB 30016) MITC95: concentration giving 95% inhibition of bacterial growth
Outline: as §1

[4] = test system: Escherichia coli expressing NDM-1 (CLB30005); assay: as above; assay type: cell-based; conditions: for Escherichia coli MITC95: Escherichia coli expressing NDM-1 (CLB30005), 95% growth inhibition; for Escherichia coli expressing NDM-1 (CLB 30005) MITC95: concentration giving 95% inhibition of bacterial growth
Outline: as §1

[5] = IMP-1 enzyme, CCF2-FA fluorescence assay
[6] = NDM-1 enzyme, CCF2-FA fluorescence assay
[7] = VIM-1 enzyme, CCF2-FA fluorescence assay, read-out: VIM-1 IC50
[8] = fluorescence assay with CCF2-FA substrate
[9] = fluorescence assay with CCF2-FA substrate, read-out: VIM-1 IC50
[10] = VIM-1 IC50, fluorescence assay with CCF2-FA substrate

Chain of IMP-1 (P52699 whole entry, looked up): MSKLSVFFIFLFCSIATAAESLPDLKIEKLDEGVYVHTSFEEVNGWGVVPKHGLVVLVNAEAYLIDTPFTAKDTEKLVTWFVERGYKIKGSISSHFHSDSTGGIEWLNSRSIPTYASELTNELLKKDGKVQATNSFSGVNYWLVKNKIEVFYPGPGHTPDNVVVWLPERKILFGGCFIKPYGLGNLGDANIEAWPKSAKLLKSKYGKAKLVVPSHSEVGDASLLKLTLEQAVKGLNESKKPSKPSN
Chain of NDM-1 (C7C422 whole entry, looked up, species assumed): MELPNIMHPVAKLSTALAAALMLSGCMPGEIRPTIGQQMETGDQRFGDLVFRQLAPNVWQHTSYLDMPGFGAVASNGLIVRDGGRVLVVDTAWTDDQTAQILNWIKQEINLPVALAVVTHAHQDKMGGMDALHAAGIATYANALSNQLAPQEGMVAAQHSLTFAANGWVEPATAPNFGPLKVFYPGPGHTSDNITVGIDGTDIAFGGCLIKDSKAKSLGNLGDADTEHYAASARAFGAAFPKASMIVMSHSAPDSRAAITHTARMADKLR

Compound	IC50 (IMP-1; [5]) [nM]	IC50 (NDM-1; [6]) [nM]	IC50 (VIM-1; [7]) [nM]	Serratia marcescens MITC95 [1] [µM]	Klebsiella pneumoniae MITC95 [2] [µM]	Escherichia coli MITC95 [3] [µM]	Escherichia coli MITC95 [4] [µM]	IC50 (IMP-1; [8]) [nM]	IC50 (NDM-1; [8]) [nM]	IC50 (VIM-1; [9]) [nM]	Serratia marcescens expressing IMP-1 (CL5741) MITC95 [1] [µM]	Klebsiella pneumoniae expressing VIM-1 (IHMA 599644) MITC95 [2] [µM]	Escherichia coli expressing NDM-1 (CLB 30016) MITC95 [3] [µM]	Escherichia coli expressing NDM-1 (CLB 30005) MITC95 [4] [µM]	IC50 (VIM-1; [10]) [nM]	IC50 (VIM-1; VIM-1 IC50, VIM-1 enzyme, CCF2-FA fluorescence assay) [nM]
NS(=O)(=O)c1cccc(-c2cnc3cc[nH]c3c2)c1-c1nn[nH]n1 [Example 310, 3-(1H-pyrrolo[3,2-b]pyridin-6-yl)-2-(2H-tetrazol-5-yl)benzenesulfonamide]	420	0.994	46	9.375	4.167	0.02344	0.1953	–	–	–	–	–	–	–	–	–
NS(=O)(=O)c1cccc(-c2cncnc2)c1-c1nn[nH]n1 [Example 42, 3-pyrimidin-5-yl-2-(2H-tetrazol-5-yl)benzenesulfonamide]	–	–	–	–	–	–	–	10500	543	9960	200	>200	0.7813	1.563	–	–
NS(=O)(=O)c1cccc(-c2cnn3ccccc23)c1-c1nn[nH]n1 [Example 98, 3-pyrazolo[1,5-a]pyridin-3-yl-2-(2H-tetrazol-5-yl)benzenesulfonamide]	–	–	–	–	–	–	–	320	2.7	–	7.813	18.75	0.7813	0.9766	29.4	–
NS(=O)(=O)c1cccc(-c2ccc3[nH]ncc3c2)c1-c1nn[nH]n1 [Example 313, 3-(1H-indazol-5-yl)-2-(2H-tetrazol-5-yl)benzenesulfonamide]	66.9	0.77	13.4	3.906	7.031	0.5859	0.4635	–	–	–	–	–	–	–	–	–
NS(=O)(=O)c1cccc(-c2ccc3nccn3c2)c1-c1nn[nH]n1 [Example 318, 3-(imidazo[1,2-a]pyridin-6-yl)-2-(2H-tetrazol-5-yl)benzenesulfonamide]	295	2.13	24.6	6.25	4.688	0.0625	0.1953	–	–	–	–	–	–	–	–	–
CN(C)CCCOc1ccc(-c2cccc(S(N)(=O)=O)c2-c2nn[nH]n2)cn1 [Example 30, 3-(6-(3-(dimethylamino)propoxy)pyridin-3-yl)-2-(2H-tetrazol-5-yl)benzenesulfonamide]	–	–	–	–	–	–	–	1670	132	–	50	200	1.563	3.125	875	–
Cc1ccncc1-c1cccc(S(N)(=O)=O)c1-c1nn[nH]n1 [Example 317, 3-(4-methylpyridin-3-yl)-2-(2H-tetrazol-5-yl)benzenesulfonamide]	360	5.38	–	9.375	18.75	0.1875	0.125	–	–	–	–	–	–	–	–	46
NS(=O)(=O)c1cccc(-c2ccc(C3CCNC3)cc2)c1-c1nnn[nH]1 (stereo not shown) [Example 180, 4′-(pyrrolidin-3-yl)-2-(1H-tetrazol-5-yl)-[1,1′-biphenyl]-3-sulfonamide]	–	–	–	–	–	–	–	113	9.91	22.4	3.125	4.688	0.5	0.3906	–	–
CC(=O)Nc1ccc(-c2ccnc(S(N)(=O)=O)c2-c2nn[nH]n2)cc1 [Example 214, N-(4-(2-sulfamoyl-3-(2H-tetrazol-5-yl)pyridin-4-yl)phenyl)acetamide]	–	–	–	–	–	–	–	98.4	13.2	129	3.344	37.5	0.375	0.1953	–	–
NS(=O)(=O)c1cccc(-c2ccnc3ccccc23)c1-c1nn[nH]n1 [Example 319, 3-(quinolin-4-yl)-2-(2H-tetrazol-5-yl)benzenesulfonamide]	62.2	0.551	0.886	3.906	3.906	3.906	0.3906	–	–	–	–	–	–	–	–	–
NS(=O)(=O)c1nccc(-c2ccccc2)c1-c1nn[nH]n1 [Example 207, 4-phenyl-3-(2H-tetrazol-5-yl)pyridine-2-sulfonamide]	–	–	–	–	–	–	–	373	35.1	201	–	–	0.5	0.1953	–	–
Cc1ccc(-c2cccc(S(N)(=O)=O)c2-c2nnn[nH]2)cc1 [Example 1, 4′-Methyl-2-(1H-tetrazol-5-yl)-[1,1′-biphenyl]-3-sulfonamide]	–	–	–	–	–	–	–	64.8	3.77	57.6	11.96	123.3	0.7595	1.489	–	–
Nc1ncc(-c2cccc(S(N)(=O)=O)c2-c2nn[nH]n2)cc1F [Example 314, 3-(6-amino-5-fluoropyridin-3-yl)-2-(2H-tetrazol-5-yl)benzenesulfonamide]	292	3.65	–	5.469	3.906	0.3906	0.1953	–	–	–	–	–	–	–	–	–
NS(=O)(=O)c1nccc(-c2ccc(CO)cc2)c1-c1nnn[nH]1 [Example 181, 4-(4-(Hydroxymethyl)phenyl)-3-(1H-tetrazol-5-yl)pyridine-2-sulfonamide]	–	–	–	–	–	–	–	375	27.9	184	12.5	18.75	0.6727	1.953	–	–
Nc1ccc(-c2cccc(S(N)(=O)=O)c2-c2nnn[nH]2)cn1 [Example 298, 3-(6-Aminopyridin-3-yl)-2-(1H-tetrazol-5-yl)benzene sulfonamide, TFA salt]	776	71.7	251	8.333	12.5	0.04688	0.1953	–	–	–	–	–	–	–	–	–
NS(=O)(=O)c1cccc(-c2cnc3[nH]ccc3c2)c1-c1nn[nH]n1 [Example 312, 3-(1H-pyrrolo[2,3-b]pyridin-5-yl)-2-(2H-tetrazol-5-yl)benzenesulfonamide]	107	0.95	6.5	5.469	3.125	0.5859	0.3906	–	–	–	–	–	–	–	–	–
Nc1ccc(-c2ccnc(S(N)(=O)=O)c2-c2nn[nH]n2)cn1 [Example 215, 6-amino-3′-(2H-tetrazol-5-yl)-[3,4′-bipyridine]-2′-sulfonamide]	–	–	–	–	–	–	–	1860	90.9	494	18.75	12.5	0.25	0.1953	–	–
NS(=O)(=O)c1cccc(-c2cnc3ccoc3c2)c1-c1nn[nH]n1 [Example 311, 3-(furo[3,2-b]pyridin-6-yl)-2-(2H-tetrazol-5-yl)benzenesulfonamide]	129	1.11	8.16	3.906	4.688	0.7813	0.1953	–	–	–	–	–	–	–	–	–
CS(=O)(=O)Nc1ccc(-c2ccnc(S(N)(=O)=O)c2-c2nn[nH]n2)cc1 [Example 206, 4-(4-(methylsulfonamido)phenyl)-3-(2H-tetrazol-5-yl)pyridine-2-sulfonamide]	–	–	–	–	–	–	–	91.5	11.4	14.2	4.125	3.125	0.375	0.1953	–	–

From patent US9708336B2, “Metallo-beta-lactamase inhibitors” (priority 2014, dated 2017)
